The values that follow come from patent US9856220B2 (AbbVie Deutschland GmbH & Co. KG, priority 2011, dated 2018).

By IC50 is commonly meant the concentration that gives 50% inhibition.

For one data set, the target named is PDE10A (Homo sapiens (Human), UniProt Q9Y233). Put plainly: Measurement of PDE activity (recombinant PDE, cAMP HTRF). Particulars: 20 nM cyclic nucleotide substrate, 60 minutes at 29 C. It counts as biochemical. Put shortly:
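Recombinant human PDE10A in 20 mM Tris-HCl pH 7.5, 10 mM MgCl2, 0.1% BSA with 20 nM cyclic nucleotide substrate; reaction 60 min at 29 C after compound preincubation with enzyme. Residual cAMP detected by HTRF (cAMP-d2/anti-cAMP cryptate); IC50 from inhibitor concentration versus PDE activity.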
(In TR-FRET formats the signal depends on donor and acceptor labels being close together.)

Data set [1] in a line: Determination of the microsomal half-life / microsomal clearance, rat liver microsomes. It counts as in vitro ADME. Particulars: 0.5 μM test substance, 0.25 mg of microsomal protein/ml, pH 7.4, 37° C. As to the method: (§1) b) Determination of the Microsomal Half-Life:
(§2) The metabolic stability of the compounds of the invention was determined in the following assay.
(§3) The test substances were incubated in a concentration of 0.5 μM as follows:
(§4) 0.5 μM test substance are preincubated together with liver microsomes from different species (from rat, human or other species) (0.25 mg of microsomal protein/ml) in 0.05 M potassium phosphate buffer of pH 7.4 in microtiter plates at 37° C. for 5 min. The reaction is started by adding NADPH (1 mg/mL). After 0, 5, 10, 15, 20 and 30 min, 50 μl aliquots are removed, and the reaction is immediately stopped and cooled with the same volume of acetonitrile. The samples are frozen until analyzed. The remaining concentration of undegraded test substance is determined by MSMS. The half-life (T½) is determined from the gradient of the signal of test substance/unit time plot, it being possible to calculate the half-life of the test substance, assuming first order kinetics, from the decrease in the concentration of the compound with time. The microsomal clearance (mCl) is calculated from mCl=ln 2/T½/(content of microsomal protein in mg/ml)×1000 [ml/min/mg]

Data set [2] is described as follows: Determination of the microsomal half-life / microsomal clearance, human liver microsomes. It counts as in vitro ADME. Conditions: 0.5 μM test substance, 0.25 mg of microsomal protein/ml, pH 7.4, 37° C. The method, then:
as §1, §2, §3, §4
For orientation: Liver microsomes are vesicles of endoplasmic reticulum, rich in cytochrome P450 enzymes.

Sequence of PDE10A (Q9Y233 whole entry, species assumed): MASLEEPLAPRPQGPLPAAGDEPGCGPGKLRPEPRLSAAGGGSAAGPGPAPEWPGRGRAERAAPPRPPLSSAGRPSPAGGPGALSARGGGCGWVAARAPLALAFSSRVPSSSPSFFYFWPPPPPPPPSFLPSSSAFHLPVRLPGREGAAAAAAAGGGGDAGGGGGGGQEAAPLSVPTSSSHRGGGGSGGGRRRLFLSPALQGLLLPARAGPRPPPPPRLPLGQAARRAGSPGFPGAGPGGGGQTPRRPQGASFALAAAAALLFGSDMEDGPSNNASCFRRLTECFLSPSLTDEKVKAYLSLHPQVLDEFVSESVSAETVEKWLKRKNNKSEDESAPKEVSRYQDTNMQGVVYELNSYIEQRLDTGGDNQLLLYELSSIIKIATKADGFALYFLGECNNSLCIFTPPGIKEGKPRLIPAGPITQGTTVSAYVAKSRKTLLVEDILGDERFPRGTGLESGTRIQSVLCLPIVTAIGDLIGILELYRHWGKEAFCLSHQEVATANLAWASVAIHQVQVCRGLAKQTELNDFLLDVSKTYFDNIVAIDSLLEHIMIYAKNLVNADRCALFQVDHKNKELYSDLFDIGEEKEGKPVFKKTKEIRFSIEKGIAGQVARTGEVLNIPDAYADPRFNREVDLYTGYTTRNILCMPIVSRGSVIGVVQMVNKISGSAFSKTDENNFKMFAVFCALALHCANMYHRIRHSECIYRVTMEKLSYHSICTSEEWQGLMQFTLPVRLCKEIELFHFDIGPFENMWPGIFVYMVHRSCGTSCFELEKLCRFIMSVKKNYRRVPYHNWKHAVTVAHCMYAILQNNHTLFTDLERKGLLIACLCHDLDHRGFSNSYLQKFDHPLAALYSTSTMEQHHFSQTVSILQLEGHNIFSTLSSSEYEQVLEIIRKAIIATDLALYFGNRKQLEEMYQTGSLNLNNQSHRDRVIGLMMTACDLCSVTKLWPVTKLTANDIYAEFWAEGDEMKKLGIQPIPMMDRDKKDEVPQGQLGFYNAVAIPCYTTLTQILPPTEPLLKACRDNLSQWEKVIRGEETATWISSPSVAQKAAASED

`CCC(CC)n1cc(C(=O)NCc2csc(C)n2)c2cc(OC)c(OC)cc2c1=O` [Example 248, 6,7-Dimethoxy-N-((2-methylthiazol-4-yl)methyl)-1-oxo-2-(pentan-3-yl)-1,2-dihydroisoquinoline-4-carboxamide]: the concentration for half-maximal inhibition (IC50) on PDE10A lay in the range of 100 to 200 nM. Besides, the “Rat mCl” value in data set [1] is “++ (<100 μl min^−1 mg^−1)”. Further, the “Human mCl” value in data set [2] is on record as “+ (100-220 μl min^−1 mg^−1)”.
For `CCC(CC)n1cc(C(=O)NCc2cccnc2)c2cc(OC)c(OC)cc2c1=O` [Example 236, 6,7-Dimethoxy-1-oxo-2-(pentan-3-yl)-N-(pyridin-3-ylmethyl)-1,2-dihydroisoquinoline-4-carboxamide], in that order: 100 to 200 nM, “++ (<100 μl min^−1 mg^−1)” and “+ (100-220 μl min^−1 mg^−1)”.
For `CCC(CC)n1cc(C(=O)NC2CC(=O)c3sccc32)c2cc(OC)c(OC)cc2c1=O` (stereo not drawn) [Example 195, 2-(1-Ethyl-propyl)-6,7-dimethoxy-1-oxo-1,2-dihydro-isoquinoline-4-carboxylic acid (6-oxo-5,6-dihydro-4H-cyclopenta[b]thiophen-4-yl)-amide], in that order: 100 to 200 nM, “+ (100-220 μl min^−1 mg^−1)” and “+ (100-220 μl min^−1 mg^−1)”.
For `CCn1cc(C(=O)Nc2ccc(N3CCOCC3)cc2)c2cc(OC)c(OC)cc2c1=O` [Example 141, 2-Ethyl-6,7-dimethoxy-N-(4-morpholinophenyl)-1-oxo-1,2-dihydroisoquinoline-4-carboxamide], in that order: 100 to 200 nM, “++ (<100 μl min^−1 mg^−1)” and “++ (<100 μl min^−1 mg^−1)”.
Turning to `CCC(CC)n1cc(C(=O)NCc2nc(C)cs2)c2cc(OC)c(OC)cc2c1=O` [Example 247, 6,7-Dimethoxy-N-((4-methylthiazol-2-yl)methyl)-1-oxo-2-(pentan-3-yl)-1,2-dihydroisoquinoline-4-carboxamide], the IC50 on PDE10A lay within 100 to 200 nM. In addition, the “Rat mCl” value in data set [1] is “++ (<100 μl min^−1 mg^−1)”. Also, the “Human mCl” value in data set [2] is “+ (100-220 μl min^−1 mg^−1)”.
On the same counts, the results for `CCC(CC)n1cc(C(=O)NC2CCc3ncccc32)c2cc(OC)c(OC)cc2c1=O` (single isomer, unassigned; (-)) [Example 200, (−)-2-(1-Ethyl-propyl)-6,7-dimethoxy-1-oxo-1,2-dihydro-isoquinoline-4-carboxylic acid (6,7-dihydro-5H-[1]pyrindin-5-yl)-amide] are 200 to 500 nM, “++ (<100 μl min^−1 mg^−1)” and “++ (<100 μl min^−1 mg^−1)”.
Consider `CCC(CC)n1cc(C(=O)NCc2cc(C)no2)c2cc(OC)c(OC)cc2c1=O` [Example 241, 6,7-Dimethoxy-N-((3-methylisoxazol-5-yl)methyl)-1-oxo-2-(pentan-3-yl)-1,2-dihydroisoquinoline-4-carboxamide], for which the concentration for half-maximal inhibition (IC50) at PDE10A was in the range of 100 to 200 nM. Also, in data set [1], the “Rat mCl” value is on record as “+ (100-220 μl min^−1 mg^−1)”. Further, the “Human mCl” value in data set [2] was “++ (<100 μl min^−1 mg^−1)”.
In the case of `CCC(CC)n1cc(C(=O)NC2CCc3ncccc32)c2cc(OC)c(OC)cc2c1=O` (single isomer, unassigned; (+)) [Example 199, (+)-2-(1-Ethyl-propyl)-6,7-dimethoxy-1-oxo-1,2-dihydro-isoquinoline-4-carboxylic acid (6,7-dihydro-5H-[1]pyrindin-5-yl)-amide], on PDE10A, the concentration for half-maximal inhibition (IC50) fell in the range of 200 to 500 nM. In addition, in data set [1], the “Rat mCl” value is reported as “++ (<100 μl min^−1 mg^−1)”. Further, the “Human mCl” value in data set [2] was “++ (<100 μl min^−1 mg^−1)”.
Turning to `COc1cc2c(C(=O)NC3CCc4ccccc43)cn(C3CC3)c(=O)c2cc1OC` (stereo not drawn) [Example 196, 2-Cyclopropyl-6,7-dimethoxy-1-oxo-1,2-dihydro-isoquinoline-4-carboxylic acid indan-1-ylamide], the “Rat mCl” value in data set [1] was “++ (<100 μl min^−1 mg^−1)”. The “Human mCl” value in data set [2] was “++ (<100 μl min^−1 mg^−1)”.
`CCn1cc(C(=O)NCc2ccc(C(C)C)cc2)c2cc(OC)c(OC)cc2c1=O` [Example 312, 2-Ethyl-N-[(4-isopropylphenyl)methyl]-6,7-dimethoxy-1-oxo-isoquinoline-4-carboxamide]: the “Rat mCl” value in data set [1] is recorded as “++ (<100 μl min^−1 mg^−1)”. The “Human mCl” value in data set [2] is recorded as “+ (100-220 μl min^−1 mg^−1)”.
As for `CCn1cc(C(=O)NC2CCc3sccc32)c2cc(OC)c(OC)cc2c1=O` (single isomer, unassigned; (-)) [Example 205, (−)-2-Ethyl-6,7-dimethoxy-1-oxo-1,2-dihydro-isoquinoline-4-carboxylic acid (5,6-dihydro-4H-cyclopenta[b]thiophen-4-yl)-amide], the IC50 on PDE10A lay within 200 to 500 nM. The “Rat mCl” value in data set [1] is on record as “++ (<100 μl min^−1 mg^−1)”. For the same compound, the “Human mCl” value in data set [2] is “++ (<100 μl min^−1 mg^−1)”.
For `CCn1cc(C(=O)NC2CCc3sccc32)c2cc(OC)c(OC)cc2c1=O` (stereo not drawn) [Example 172, N-(5,6-Dihydro-4H-cyclopenta[b]thiophen-4-yl)-2-ethyl-6,7-dimethoxy-1-oxo-1,2-dihydroisoquinoline-4-carboxamide], the IC50 on PDE10A was in the range of 100 to 200 nM. For the same compound, the “Rat mCl” value in data set [1] was “++ (<100 μl min^−1 mg^−1)”. In addition, the “Human mCl” value in data set [2] is on record as “++ (<100 μl min^−1 mg^−1)”.
In the case of `CCn1cc(C(=O)NCc2ccc(C)cc2)c2cc(OC)c(OC)cc2c1=O` [Example 161, 2-Ethyl-6,7-dimethoxy-N-(4-methylbenzyl)-1-oxo-1,2-dihydroisoquinoline-4-carboxamide], the 50% inhibitory concentration (IC50) at PDE10A is less than 100 nM. The “Rat mCl” value in data set [1] was “++ (<100 μl min^−1 mg^−1)”. The “Human mCl” value in data set [2] is recorded as “++ (<100 μl min^−1 mg^−1)”.
As to `CCC(CC)n1cc(C(=O)N[C@@H](C)c2ccc(F)cc2)c2cc(OC)c(OC)cc2c1=O` [Example 246, (S)—N-(1-(4-fluorophenyl)ethyl)-6,7-dimethoxy-1-oxo-2-(pentan-3-yl)-1,2-dihydroisoquinoline-4-carboxamide], on PDE10A, the IC50 was 100 to 200 nM. Also, the “Rat mCl” value in data set [1] was “+ (100-220 μl min^−1 mg^−1)”. In data set [2], the “Human mCl” value is given as “∘ (>220 μl min^−1 mg^−1)”.
As for `CCC(CC)n1cc(C(=O)NCc2occc2C)c2cc(OC)c(OC)cc2c1=O` [Example 267, 6,7-Dimethoxy-N-((3-methylfuran-2-yl)methyl)-1-oxo-2-(pentan-3-yl)-1,2-dihydroisoquinoline-4-carboxamide], the IC50 at PDE10A lay in the range of 100 to 200 nM. In addition, the “Rat mCl” value in data set [1] is on record as “∘ (>220 μl min^−1 mg^−1)”. The “Human mCl” value in data set [2] is listed as “+ (100-220 μl min^−1 mg^−1)”.
Consider `CCn1cc(C(=O)NCc2ccc(C(F)(F)F)cc2)c2cc(OC)c(OC)cc2c1=O` [Example 310, 2-Ethyl-6,7-dimethoxy-1-oxo-N-[[4-(trifluoromethyl)phenyl]-methyl]isoquinoline-4-carboxamide], for which, in data set [1], the “Rat mCl” value is “++ (<100 μl min^−1 mg^−1)”. The “Human mCl” value in data set [2] was “++ (<100 μl min^−1 mg^−1)”.
With `CCC(CC)n1cc(C(=O)NCc2cscn2)c2cc(OC)c(OC)cc2c1=O` [Example 203, 2-(1-Ethyl-propyl)-6,7-dimethoxy-1-oxo-1,2-dihydro-isoquinoline-4-carboxylic acid (thiazol-4-ylmethyl)-amide], in data set [1], the “Rat mCl” value is listed as “++ (<100 μl min^−1 mg^−1)”. In addition, the “Human mCl” value in data set [2] is “++ (<100 μl min^−1 mg^−1)”.
On to `CCn1cc(C(=O)NC2CCc3sccc32)c2cc(OC)c(OC)cc2c1=O` (single isomer, unassigned; (+)) [Example 204, (+)-2-Ethyl-6,7-dimethoxy-1-oxo-1,2-dihydro-isoquinoline-4-carboxylic acid (5,6-dihydro-4H-cyclopenta[b]thiophen-4-yl)-amide], for which the “Rat mCl” value in data set [1] was “++ (<100 μl min^−1 mg^−1)”. Moreover, in data set [2], the “Human mCl” value is on record as “+ (100-220 μl min^−1 mg^−1)”.
Regarding `CCn1cc(C(=O)NCc2ccc(C(F)F)cc2)c2cc(OC)c(OC)cc2c1=O` [Example 315, N-[[4-(Difluoromethyl)phenyl]methyl]-2-ethyl-6,7-dimethoxy-1-oxo-isoquinoline-4-carboxamide], the “Rat mCl” value in data set [1] is “++ (<100 μl min^−1 mg^−1)”. Besides, in data set [2], the “Human mCl” value is given as “++ (<100 μl min^−1 mg^−1)”.
For `CCn1cc(C(=O)N[C@@H](C)c2ccc(C)cc2)c2cc(OC)c(OC)cc2c1=O` [Example 311, 2-Ethyl-6,7-dimethoxy-1-oxo-N-[(1S)-1-(p-tolyl)ethyl]isoquinoline-4-carboxamide], the IC50 at PDE10A lay within 200 to 500 nM. Moreover, the “Human mCl” value in data set [2] is given as “++ (<100 μl min^−1 mg^−1)”.
In the case of `CCn1cc(C(=O)NCc2cscn2)c2cc(OC)c(OC)cc2c1=O` [Example 309, 2-Ethyl-6,7-dimethoxy-1-oxo-N-(thiazol-4-ylmethyl)isoquinoline-4-carboxamide], the IC50 on PDE10A fell in the range of 200 to 500 nM. For the same compound, in data set [2], the “Human mCl” value was “++ (<100 μl min^−1 mg^−1)”.
With `CCn1cc(C(=O)N[C@H](C)c2ccc(C)cc2)c2cc(OC)c(OC)cc2c1=O` [Example 314, 2-Ethyl-6,7-dimethoxy-1-oxo-N-[(1R)-1-(p-tolyl)ethyl]isoquinoline-4-carboxamide], the “Rat mCl” value in data set [1] was “++ (<100 μl min^−1 mg^−1)”. Besides, in data set [2], the “Human mCl” value was “++ (<100 μl min^−1 mg^−1)”.
